Experimental data reported in ChEMBL document CHEMBL2074218, “Effect of P-glycoprotein modulator, cyclosporin A, on the gastrointestinal excretion of irinotecan and its metabolite SN-38 in rats” (Pharm Res, 2003).

Target: ATP-dependent translocase ABCB1 (Mus musculus, UniProt P21447)
Test: TP_TRANSPORTER: transepithelial transport (basal to apical) in Mdr1a-expressing LLC-PK1 cells
Format: functional, cell-based
Details: pig

ATP-dependent translocase ABCB1, sequence (P21447 whole entry): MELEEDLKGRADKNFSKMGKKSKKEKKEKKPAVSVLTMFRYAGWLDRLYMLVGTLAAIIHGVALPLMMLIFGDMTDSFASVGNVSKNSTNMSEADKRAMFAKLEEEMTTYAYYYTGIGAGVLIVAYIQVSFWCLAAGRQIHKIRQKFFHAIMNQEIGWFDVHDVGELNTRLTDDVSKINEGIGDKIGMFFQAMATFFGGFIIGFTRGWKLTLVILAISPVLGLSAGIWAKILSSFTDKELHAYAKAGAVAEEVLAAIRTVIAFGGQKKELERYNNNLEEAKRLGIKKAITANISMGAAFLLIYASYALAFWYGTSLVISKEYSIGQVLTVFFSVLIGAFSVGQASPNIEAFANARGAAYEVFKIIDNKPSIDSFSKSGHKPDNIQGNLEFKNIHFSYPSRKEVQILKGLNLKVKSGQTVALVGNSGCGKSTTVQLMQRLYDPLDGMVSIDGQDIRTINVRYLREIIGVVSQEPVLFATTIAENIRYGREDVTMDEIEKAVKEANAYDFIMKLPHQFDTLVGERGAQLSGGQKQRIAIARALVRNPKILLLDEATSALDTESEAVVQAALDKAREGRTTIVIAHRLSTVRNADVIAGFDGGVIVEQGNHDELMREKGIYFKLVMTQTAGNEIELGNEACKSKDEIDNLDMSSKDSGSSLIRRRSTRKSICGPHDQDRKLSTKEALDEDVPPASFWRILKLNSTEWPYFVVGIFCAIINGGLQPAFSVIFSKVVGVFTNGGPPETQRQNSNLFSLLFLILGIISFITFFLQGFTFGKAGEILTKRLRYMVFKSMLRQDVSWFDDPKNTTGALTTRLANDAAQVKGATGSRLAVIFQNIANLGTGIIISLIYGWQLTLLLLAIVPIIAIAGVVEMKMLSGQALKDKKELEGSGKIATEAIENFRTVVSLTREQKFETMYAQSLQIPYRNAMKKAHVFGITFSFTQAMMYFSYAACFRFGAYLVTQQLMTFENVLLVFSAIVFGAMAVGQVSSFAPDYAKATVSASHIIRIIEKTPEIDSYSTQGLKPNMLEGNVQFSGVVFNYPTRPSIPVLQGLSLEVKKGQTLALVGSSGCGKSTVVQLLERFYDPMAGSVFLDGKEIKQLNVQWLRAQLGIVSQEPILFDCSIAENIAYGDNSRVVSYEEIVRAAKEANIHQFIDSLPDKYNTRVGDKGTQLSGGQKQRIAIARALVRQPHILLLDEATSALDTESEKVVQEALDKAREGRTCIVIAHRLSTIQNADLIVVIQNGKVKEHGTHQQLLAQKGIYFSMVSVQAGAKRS

Row | SMILES | Activity
1 | CCc1c2c(nc3ccc(OC[C@@H]4O[C@H](C(=O)O)[C@@H](O)[C@H](O)[C@H]4O)cc13)-c1cc3c(c(=O)n1C2)COC(=O)[C@]3(O)CC | substrate [+]
2 | CCc1c2c(nc3ccc(O)cc13)-c1cc([C@@](O)(CC)C(=O)O)c(CO)c(=O)n1C2 | substrate [+]
3 | CCc1c2c(nc3ccc(OC(=O)N4CCC(N5CCCCC5)CC4)cc13)-c1cc([C@@](O)(CC)C(=O)O)c(CO)c(=O)n1C2 | substrate [+]
4 | CCc1c2c(nc3ccc(OC(=O)N4CCC(N5CCCCC5)CC4)cc13)-c1cc3c(c(=O)n1C2)COC(=O)[C@]3(O)CC [IRINOTECAN] | substrate [+]
